In paper PMC9889419 (Pharmacological Reports, 2022):
Counter-ions that a name gives are not always drawn.

Tests used:
Test in all cases: Radioligand binding
Sigma 1 = target: T1, Sigma 1 (Homo sapiens, UniProt Q99720)
T1 construct: purchased Eurofins CEREP

Sigma 2 = target: T2, Sigma 2 (Homo sapiens, UniProt Q5BJF2)
T2 construct: purchased Eurofins CEREP

5-HT1B = target: T3, 5-HT1B (Rattus norvegicus, UniProt P28564); details: 100 μM
T3 construct: purchased Eurofins CEREP

5-HT6 = target: T4, 5-HT6 (Homo sapiens, UniProt P50406); details: 100 μM
T4 construct: purchased Eurofins CEREP
T4 sequence (P50406 whole entry): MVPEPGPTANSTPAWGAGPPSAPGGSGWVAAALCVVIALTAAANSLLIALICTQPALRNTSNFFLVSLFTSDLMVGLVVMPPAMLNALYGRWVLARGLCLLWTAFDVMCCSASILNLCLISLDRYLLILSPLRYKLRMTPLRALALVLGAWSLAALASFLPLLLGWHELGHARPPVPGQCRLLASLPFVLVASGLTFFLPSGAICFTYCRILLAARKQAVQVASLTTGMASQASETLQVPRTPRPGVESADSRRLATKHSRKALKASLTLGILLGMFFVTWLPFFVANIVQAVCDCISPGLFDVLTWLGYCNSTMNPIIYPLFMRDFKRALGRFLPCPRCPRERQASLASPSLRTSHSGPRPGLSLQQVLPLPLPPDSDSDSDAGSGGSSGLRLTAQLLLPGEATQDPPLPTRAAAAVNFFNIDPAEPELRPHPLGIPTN

A2A = target: T5, A2A (Homo sapiens, UniProt P29274); details: 100 μM
T5 construct: purchased Eurofins CEREP
T5 sequence (P29274 whole entry): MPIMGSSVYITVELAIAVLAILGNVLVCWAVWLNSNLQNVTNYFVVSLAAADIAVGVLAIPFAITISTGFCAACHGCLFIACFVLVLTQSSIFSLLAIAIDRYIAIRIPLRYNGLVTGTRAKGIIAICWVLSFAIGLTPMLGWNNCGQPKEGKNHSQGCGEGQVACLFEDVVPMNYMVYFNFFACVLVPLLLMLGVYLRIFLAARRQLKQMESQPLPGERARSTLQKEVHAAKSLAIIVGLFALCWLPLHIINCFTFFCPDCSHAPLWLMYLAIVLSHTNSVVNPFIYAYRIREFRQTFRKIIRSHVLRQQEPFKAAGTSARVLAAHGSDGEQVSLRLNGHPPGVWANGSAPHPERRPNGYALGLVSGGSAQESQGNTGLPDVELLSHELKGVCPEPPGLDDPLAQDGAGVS

A3 = target: T6, A3 (Homo sapiens, UniProt P0DMS8); details: 100 μM
T6 construct: purchased Eurofins CEREP
T6 sequence (P0DMS8 whole entry): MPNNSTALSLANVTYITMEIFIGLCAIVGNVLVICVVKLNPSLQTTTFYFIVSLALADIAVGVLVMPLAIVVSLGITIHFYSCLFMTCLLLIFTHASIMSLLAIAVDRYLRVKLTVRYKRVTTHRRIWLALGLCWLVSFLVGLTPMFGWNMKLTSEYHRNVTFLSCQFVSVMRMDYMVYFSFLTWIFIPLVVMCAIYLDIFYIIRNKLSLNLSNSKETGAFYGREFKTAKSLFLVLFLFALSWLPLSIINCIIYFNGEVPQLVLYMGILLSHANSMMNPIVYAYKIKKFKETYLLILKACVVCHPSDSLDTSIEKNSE

AT1 = target: T7, AT1 (Homo sapiens, UniProt P30556); details: 100 μM
T7 construct: purchased Eurofins CEREP

AT2 = target: T8, AT2 (Homo sapiens, UniProt P50052); details: 100 μM
T8 construct: purchased Eurofins CEREP

BZD (peripheral) = target: T9, BZD (peripheral) (Rattus norvegicus, UniProt P16257); details: 100 μM
T9 construct: purchased Eurofins CEREP
T9 sequence (P16257 whole entry): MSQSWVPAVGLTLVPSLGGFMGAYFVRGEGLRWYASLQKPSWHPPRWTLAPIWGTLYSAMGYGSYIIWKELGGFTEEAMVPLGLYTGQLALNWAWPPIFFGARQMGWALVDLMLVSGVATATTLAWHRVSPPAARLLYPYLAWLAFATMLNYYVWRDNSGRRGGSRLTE

CGRP = target: T10, CGRP (Homo sapiens, UniProt O60894+Q16602); details: 100 μM
T10 construct: purchased Eurofins CEREP

CXCR2 (IL-8B) = target: T11, CXCR2 (IL-8B) (Homo sapiens, UniProt P25025); details: 100 μM
T11 construct: purchased Eurofins CEREP

D1 = target: T12, D1 (Homo sapiens, UniProt P21728); details: 100 μM
T12 construct: purchased Eurofins CEREP
T12 sequence (P21728 whole entry): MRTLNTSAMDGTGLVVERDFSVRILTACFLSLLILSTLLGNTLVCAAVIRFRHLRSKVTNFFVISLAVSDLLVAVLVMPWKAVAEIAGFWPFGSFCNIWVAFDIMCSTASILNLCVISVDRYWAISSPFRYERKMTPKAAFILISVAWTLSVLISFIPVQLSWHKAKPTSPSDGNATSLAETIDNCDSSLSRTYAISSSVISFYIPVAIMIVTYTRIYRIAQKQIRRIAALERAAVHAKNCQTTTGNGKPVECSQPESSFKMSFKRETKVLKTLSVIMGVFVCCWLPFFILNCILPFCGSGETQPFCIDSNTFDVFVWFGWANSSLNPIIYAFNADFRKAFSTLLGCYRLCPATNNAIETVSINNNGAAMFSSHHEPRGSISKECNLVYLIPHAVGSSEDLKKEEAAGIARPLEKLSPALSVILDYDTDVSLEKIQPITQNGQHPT

EP2 = target: T13, EP2 (Homo sapiens, UniProt P43116); details: 100 μM
T13 construct: purchased Eurofins CEREP

ETA = target: T14, ETA (Homo sapiens, UniProt P25101); details: 100 μM
T14 construct: purchased Eurofins CEREP

GAL1 = target: T15, GAL1 (Homo sapiens, UniProt P47211); details: 100 μM
T15 construct: purchased Eurofins CEREP

GR = target: T16, GR (Homo sapiens, UniProt P04150); details: 100 μM
T16 construct: purchased Eurofins CEREP

H1 = target: T17, H1 (Homo sapiens, UniProt P35367); details: 100 μM
T17 construct: purchased Eurofins CEREP
T17 sequence (P35367 whole entry): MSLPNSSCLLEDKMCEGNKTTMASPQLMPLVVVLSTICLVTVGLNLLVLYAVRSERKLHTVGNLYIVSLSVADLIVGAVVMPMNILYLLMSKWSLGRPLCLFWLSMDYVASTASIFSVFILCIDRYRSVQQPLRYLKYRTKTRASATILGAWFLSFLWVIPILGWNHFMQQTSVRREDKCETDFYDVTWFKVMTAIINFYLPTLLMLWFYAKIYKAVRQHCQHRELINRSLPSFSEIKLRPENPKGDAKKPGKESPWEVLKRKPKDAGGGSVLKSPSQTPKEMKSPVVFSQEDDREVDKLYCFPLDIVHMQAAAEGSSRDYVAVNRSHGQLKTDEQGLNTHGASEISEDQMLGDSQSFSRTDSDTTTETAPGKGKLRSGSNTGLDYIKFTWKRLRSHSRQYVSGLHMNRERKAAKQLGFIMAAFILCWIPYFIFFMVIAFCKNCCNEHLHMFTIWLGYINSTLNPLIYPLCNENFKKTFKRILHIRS

H2 = target: T18, H2 (Homo sapiens, UniProt P25021); details: 100 μM
T18 construct: purchased Eurofins CEREP

IP (PGI2) = target: T19, IP (PGI2) (Homo sapiens, UniProt P43119); details: 100 μM
T19 construct: purchased Eurofins CEREP

M2 = target: T20, M2 (Homo sapiens, UniProt P08172); details: 100 μM
T20 construct: purchased Eurofins CEREP

M3 = target: T21, M3 (Homo sapiens, UniProt P20309); details: 100 μM
T21 construct: purchased Eurofins CEREP
T21 sequence (P20309 whole entry): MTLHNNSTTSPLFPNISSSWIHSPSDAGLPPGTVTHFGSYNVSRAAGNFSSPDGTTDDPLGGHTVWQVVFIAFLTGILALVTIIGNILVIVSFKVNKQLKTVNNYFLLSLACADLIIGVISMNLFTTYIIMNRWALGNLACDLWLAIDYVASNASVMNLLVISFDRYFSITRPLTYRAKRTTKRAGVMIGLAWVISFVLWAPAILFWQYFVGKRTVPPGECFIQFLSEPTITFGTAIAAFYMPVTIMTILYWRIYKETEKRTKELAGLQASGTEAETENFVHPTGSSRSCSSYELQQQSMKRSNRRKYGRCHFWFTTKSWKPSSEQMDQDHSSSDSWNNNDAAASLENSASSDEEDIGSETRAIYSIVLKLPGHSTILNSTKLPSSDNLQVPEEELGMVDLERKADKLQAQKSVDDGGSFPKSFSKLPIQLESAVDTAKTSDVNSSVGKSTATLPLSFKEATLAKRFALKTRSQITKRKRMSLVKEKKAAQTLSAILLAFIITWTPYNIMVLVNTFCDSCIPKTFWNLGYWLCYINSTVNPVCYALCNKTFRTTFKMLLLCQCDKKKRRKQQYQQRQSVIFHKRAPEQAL

MC4 = target: T22, MC4 (Homo sapiens, UniProt P32245); details: 100 μM
T22 construct: purchased Eurofins CEREP

MT1 (ML1A) = target: T23, MT1 (ML1A) (Homo sapiens, UniProt P48039); details: 100 μM
T23 construct: purchased Eurofins CEREP

NK1 = target: T24, NK1 (Homo sapiens, UniProt P25103); details: 100 μM
T24 construct: purchased Eurofins CEREP

NK2 = target: T25, NK2 (Homo sapiens, UniProt P21452); details: 100 μM
T25 construct: purchased Eurofins CEREP

NK3 = target: T26, NK3 (Homo sapiens, UniProt P29371); details: 100 μM
T26 construct: purchased Eurofins CEREP
T26 sequence (P29371 whole entry): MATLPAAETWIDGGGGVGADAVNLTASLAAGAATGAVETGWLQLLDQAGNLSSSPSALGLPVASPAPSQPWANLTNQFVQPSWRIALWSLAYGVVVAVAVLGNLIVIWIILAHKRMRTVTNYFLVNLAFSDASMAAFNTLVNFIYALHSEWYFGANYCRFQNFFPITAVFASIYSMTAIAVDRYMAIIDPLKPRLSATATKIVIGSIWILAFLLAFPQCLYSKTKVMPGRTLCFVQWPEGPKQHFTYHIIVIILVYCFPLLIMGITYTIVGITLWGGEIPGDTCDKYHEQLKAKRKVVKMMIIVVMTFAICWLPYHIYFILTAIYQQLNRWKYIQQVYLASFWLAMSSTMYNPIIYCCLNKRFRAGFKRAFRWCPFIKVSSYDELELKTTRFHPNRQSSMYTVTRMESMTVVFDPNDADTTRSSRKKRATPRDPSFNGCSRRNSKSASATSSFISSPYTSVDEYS

NOP (ORL1) = target: T27, NOP (ORL1) (Homo sapiens, UniProt P41146); details: 100 μM
T27 construct: purchased Eurofins CEREP

NTS1 (NT1) = target: T28, NTS1 (NT1) (Homo sapiens, UniProt P30989); details: 100 μM
T28 construct: purchased Eurofins CEREP

PAC1 (PACAP) = target: T29, PAC1 (PACAP) (Homo sapiens, UniProt P41586); details: 100 μM
T29 construct: purchased Eurofins CEREP
T29 sequence (P41586 21-468): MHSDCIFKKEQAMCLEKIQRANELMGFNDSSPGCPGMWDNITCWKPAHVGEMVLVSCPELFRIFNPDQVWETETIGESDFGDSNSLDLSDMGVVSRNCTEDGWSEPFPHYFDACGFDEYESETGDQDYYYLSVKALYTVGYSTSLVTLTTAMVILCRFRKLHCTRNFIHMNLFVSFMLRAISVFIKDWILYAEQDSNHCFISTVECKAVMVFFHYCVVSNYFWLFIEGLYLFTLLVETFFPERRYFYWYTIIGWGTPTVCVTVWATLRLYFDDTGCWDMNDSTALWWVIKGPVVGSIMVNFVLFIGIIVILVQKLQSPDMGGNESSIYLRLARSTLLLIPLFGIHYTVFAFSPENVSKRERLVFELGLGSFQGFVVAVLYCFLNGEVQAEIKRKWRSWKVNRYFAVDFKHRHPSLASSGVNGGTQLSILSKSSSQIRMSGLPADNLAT

PDGF = details: 100 μM
TNF-α = details: 100 μM
V1a = target: T30, V1a (Homo sapiens, UniProt P37288); details: 100 μM
T30 construct: purchased Eurofins CEREP
T30 sequence (P37288 whole entry): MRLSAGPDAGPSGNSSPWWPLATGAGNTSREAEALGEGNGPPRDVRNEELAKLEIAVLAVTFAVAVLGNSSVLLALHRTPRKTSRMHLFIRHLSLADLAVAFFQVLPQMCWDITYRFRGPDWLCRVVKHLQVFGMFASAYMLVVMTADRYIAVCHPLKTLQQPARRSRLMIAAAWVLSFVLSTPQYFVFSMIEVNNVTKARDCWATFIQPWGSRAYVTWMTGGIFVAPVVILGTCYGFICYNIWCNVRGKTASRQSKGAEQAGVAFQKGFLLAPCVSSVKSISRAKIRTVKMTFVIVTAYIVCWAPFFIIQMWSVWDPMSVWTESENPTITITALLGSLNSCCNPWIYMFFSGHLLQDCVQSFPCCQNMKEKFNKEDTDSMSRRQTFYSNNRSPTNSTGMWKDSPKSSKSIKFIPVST

VPAC1 (VIP1) = target: T31, VPAC1 (VIP1) (Homo sapiens, UniProt P32241); details: 100 μM
T31 construct: purchased Eurofins CEREP

Y1 = target: T32, Y1 (Homo sapiens, UniProt P25929); details: 100 μM
T32 construct: purchased Eurofins CEREP

[1] = target: T33, norepinephrine transporter (Homo sapiens, UniProt P23975); details: 100 μM
T33 construct: purchased Eurofins CEREP

β1 = target: T34, β1 (Homo sapiens, UniProt P08588); details: 100 μM
T34 construct: purchased Eurofins CEREP

β2 = target: T35, β2 (Homo sapiens, UniProt P07550); details: 100 μM
T35 construct: purchased Eurofins CEREP

δ (DOP) = target: T36, δ (DOP) (Homo sapiens, UniProt P41143); details: 100 μM
T36 construct: purchased Eurofins CEREP

μ (MOP) = target: T37, μ (MOP) (Homo sapiens, UniProt P35372); details: 100 μM
T37 construct: purchased Eurofins CEREP

[2] = read-out: % inhibition of specific control binding
[3] = read-out: % of control specific binding

T1 sequence (Q99720 whole entry): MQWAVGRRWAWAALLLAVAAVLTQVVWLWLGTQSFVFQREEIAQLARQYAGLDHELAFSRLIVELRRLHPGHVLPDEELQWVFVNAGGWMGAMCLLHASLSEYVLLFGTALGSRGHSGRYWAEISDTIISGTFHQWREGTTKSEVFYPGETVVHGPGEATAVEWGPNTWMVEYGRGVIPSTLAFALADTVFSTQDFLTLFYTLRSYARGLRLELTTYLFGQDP
T2 sequence (Q5BJF2 whole entry): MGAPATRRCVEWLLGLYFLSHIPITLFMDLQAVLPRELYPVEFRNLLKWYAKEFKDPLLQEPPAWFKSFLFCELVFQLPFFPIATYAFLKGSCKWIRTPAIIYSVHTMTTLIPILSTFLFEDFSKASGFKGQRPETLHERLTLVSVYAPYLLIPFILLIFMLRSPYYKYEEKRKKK

CCC(CO)NCCOc1c(C)cccc1Cl (centres unmarked) [KM-408, R,S-2-((2-(2-chloro-6-methylphenoxy)ethyl)amino)butan-1-ol hydrochloride]
inhibition at 10 µM (Sigma 1; [2]): 95%
remaining activity at 10 µM (Sigma 1; [3]): 95%
inhibition at 10 µM (Sigma 2; [2]): 94.8%
remaining activity at 10 µM (Sigma 2; [3]): 94.8%

CCC(CO)NCCOc1c(C)cccc1Cl (centres unmarked) [Compound 4, R,S-2-((2-(2-chloro-6-methylphenoxy)ethyl)amino)butan-1-ol]
% of control specific binding (5-HT1B): 79.7%
% of control specific binding (5-HT6): 101.6%
% of control specific binding (A2A): 71.7%
% of control specific binding (A3): 115.1%
% of control specific binding (AT1): 131.2%
% of control specific binding (AT2): 108.2%
% of control specific binding (BZD (peripheral)): 75.1%
% of control specific binding (CGRP): 119.0%
% of control specific binding (CXCR2 (IL-8B)): 112.2%
% of control specific binding (D1): 58.6%
% of control specific binding (EP2): 75.4%
% of control specific binding (ETA): 130.9%
% of control specific binding (GAL1): 123.5%
% of control specific binding (GR): 111.7%
% of control specific binding (H1): 58.9%
% of control specific binding (H2): 90.3%
% of control specific binding (IP (PGI2)): 97.2%
% of control specific binding (M2): 58.4%
% of control specific binding (M3): 63.5%
% of control specific binding (MC4): 92.0%
% of control specific binding (MT1 (ML1A)): 55.1%
% of control specific binding (NK1): 82.1%
% of control specific binding (NK2): 88.7%
% of control specific binding (NK3): 91.8%
% of control specific binding (NOP (ORL1)): 95.5%
% of control specific binding (NTS1 (NT1)): 128.1%
% of control specific binding (PAC1 (PACAP)): 107.7%
% of control specific binding (PDGF): 127.9%
% of control specific binding (TNF-α): 96.5%
% of control specific binding (V1a): 99.8%
% of control specific binding (VPAC1 (VIP1)): 117.9%
% of control specific binding (Y1): 122.3%
% of control specific binding [1]: 55.0%
% of control specific binding (β1): 64.4%
% of control specific binding (β2): 85.1%
% of control specific binding (δ (DOP)): 97.0%
% of control specific binding (μ (MOP)): 50.1%
